One assay relates to Hela cells. The assay can be described thus: Cell viability assay (CCK-8), Hela. The assay is classed as cell-based. Conditions: 48 h; for IC50: Homo sapiens, read-out: Antiproliferation activity (pIC50 ± SEM) Hela (converted). As to the method:
(§1) Various cancer cell lines, including human colon cancer cell line HT-29, ovarian cell line OVCAR-3, melanoma cell line B16-F10, skin squamous cancer cells A431, cervical cancer cells Hela, lung cancer cell lines A549, H1975, and HCC827, were purchased from American type culture collection (ATCC). A431, H1975, B16-F10, OVCAR-3, HT-29, HCC827, Hela, and A549 cells were cultured in Dulbecco’s modified Eagle medium (DMEM, Gibco) containing 10% fetal bovine serum (FBS, Gibco), penicillin (100 U/ml) and streptomycin (100 μg/ml). All cell lines were maintained in a humidified 37°C incubator with 5% CO2. The medium was refreshed every 2–3 days and the cells were passaged at ∼90% confluence by adding the fresh medium, followed by vigorously pipetting the resuspend cells. Of note, the cells were only washed with PBS when a significant number of dead cells were observed.
(§2) The antiproliferation activity of the compounds against the cancer cell lines was evaluated using Cell Counting Kit-8. Briefly, cells (∼1,000 per well) in 100 µl of culture medium were plated in a 96-well plate for 24 h and 100 µl of medium with different concentrations of the tested compounds was added to each well for 48 h. Then 10 μl of CCK8 solution (#CK04, Dojindo) was added and incubated at 37°C for 2 h. The absorbance of each well was measured with a plate reader (BioTeck) at 450 nm. Cell viability was calculated as follows: cell viability (%) = [(As-Ab)/(Ac-Ab)] × 100. Among them, As represents the absorbance of experimental wells, Ab represents the absorbance of blank wells and Ac represents the absorbance of control wells. The experiments were repeated at least three times and IC50 values were determined by plotting a log(inhibitor) v. s normalized response (Variable slope) dose–response curve generated using GraphPad Prism software.

The next assay has as its system HCC827 cells. Briefly: Cell viability assay (CCK-8), HCC827. Conditions: HCC827, 48 h; for IC50: Homo sapiens, read-out: Antiproliferation activity (pIC50 ± SEM) HCC827 (converted). The assay is classed as cell-based. As to the method:
as §1, §2

The next assay concerns the target T1, human ABHD12 (Homo sapiens, UniProt Q8N2K0).
T1 construct: expressed in transfected cells; host or cells: HEK293T (transient transfection; membrane fraction)
T1 sequence (Q8N2K0 1-398): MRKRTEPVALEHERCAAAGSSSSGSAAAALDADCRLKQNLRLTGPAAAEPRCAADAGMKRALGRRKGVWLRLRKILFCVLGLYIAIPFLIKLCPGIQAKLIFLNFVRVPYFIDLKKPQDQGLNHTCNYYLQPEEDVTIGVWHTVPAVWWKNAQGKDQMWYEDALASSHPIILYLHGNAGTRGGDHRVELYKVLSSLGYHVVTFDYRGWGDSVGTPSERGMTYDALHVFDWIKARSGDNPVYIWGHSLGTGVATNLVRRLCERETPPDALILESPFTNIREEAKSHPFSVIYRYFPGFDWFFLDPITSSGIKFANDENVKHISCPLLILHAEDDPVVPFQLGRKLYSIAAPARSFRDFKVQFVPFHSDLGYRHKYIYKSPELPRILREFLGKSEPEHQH
The assay can be described thus: ABHD12 activity by competitive ABPP with FP-TAMRA. The assay is classed as biochemical. To be noted: for potency towards ABHD12: 100 µM; for potency towards ABHD12 / inhibition at 100 µM: competitive ABPP; for inhibition at 100 µM: recombinant human ABHD12, 100 µM compound. The procedure, abridged: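 Membrane fractions of HEK293T cells transiently overexpressing human ABHD12 (1 mg/ml) preincubated with inhibitor or DMSO for 30 min at room temperature, then labelled with FP-TAMRA (250 nM final) for 20 min. Quenched samples resolved by SDS-PAGE and read by in-gel fluorescence scanning (Cy3 settings).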

The test system of assay [1] is panel of cancer cell lines (A431, H1975, B16-F10, OVCAR-3, HT-29, HCC827, Hela, A549). The assay can be described thus: Cell viability assay (CCK-8), panel of eight cancer cell lines. The assay is classed as cell-based. Conditions: 48 h; for antiproliferative screening across the cell line panel: 20 µM. The protocol: as §1, §2
In another assay the test system is B16-F10 cells. Briefly: Cell viability assay (CCK-8), B16-F10. The assay is classed as cell-based. To be noted: for IC50: Mus musculus, read-out: Antiproliferation activity (pIC50 ± SEM) B16-F10 (converted). The protocol:
as §1, §2

The subject of a further assay is A549 cells. The assay can be described thus: Cell viability assay (CCK-8), A549. The assay is classed as cell-based. Conditions: A549, 48 h; for IC50: Homo sapiens, read-out: Antiproliferation activity (pIC50 ± SEM) A549 (converted). The protocol: as §1, §2
In another assay the test system is HT-29 cells. Briefly: Cell viability assay (CCK-8), HT-29. The assay is classed as cell-based, human. To be noted: HT-29, 48 h; for IC50: Homo sapiens, read-out: Antiproliferation activity (pIC50 ± SEM) HT-29 (converted). As to the method:
as §1, §2

The subject of the next assay is OVCAR-3 cells. Briefly: Cell viability assay (CCK-8), OVCAR-3. The assay is classed as cell-based. Conditions: OVCAR-3, 48 h; for IC50: Homo sapiens, read-out: Antiproliferation activity (pIC50 ± SEM) OVCAR-3 (converted). The protocol: as §1, §2
Another assay has as its system A431 cells. The assay can be described thus: Cell viability assay (CCK-8), A431. The assay is classed as cell-based. Conditions: for IC50: Homo sapiens, A-431, read-out: Antiproliferation activity (pIC50 ± SEM) A431 (converted). As to the method: as §1, §2
Where [2] appears, read: 100 µM compound, competitive ABPP with probe FP-TAMRA (250 nM), read-out: ABHD12 Inhibition (%).

Take `Cl.N=c1ccn2c(n1)O[C@H]1[C@H](O)[C@@H](CO)O[C@H]12` [compound 1, Cyclocytidine HCl]: the “Antiproliferation activity (pIC50 ± SEM) Hela” value in the assay on Hela cells stood at 5.0 ± 0.2. Also, in the assay on HCC827 cells, the “Antiproliferation activity (pIC50 ± SEM) HCC827” value is 5.1 ± 0.2. In addition, on human ABHD12 (setting [2]), the activity amounted to 70.1%. Further, the “antiproliferative screening across the cell line panel” value in assay [1] is “appreciable inhibition against almost all the tested cell lines”. Also, the “Antiproliferation activity (pIC50 ± SEM) B16-F10” value in the assay on B16-F10 cells (B16-F10, 48 h, CCK-8) was 5.7 ± 0.2. The “Antiproliferation activity (pIC50 ± SEM) A549” value in the assay with A549 cells stood at 6.3 ± 0.2. Besides, the “Antiproliferation activity (pIC50 ± SEM) HT-29” value with HT-29 cells is below 5. Further, the “Antiproliferation activity (pIC50 ± SEM) OVCAR-3” value with OVCAR-3 cells turned out to be 5.7 ± 0.3. Besides, the “Antiproliferation activity (pIC50 ± SEM) A431” value in the assay with A431 cells (A431, 48 h, CCK-8) is below 5.

Regarding `O=c1cc(-c2ccc(O)cc2)oc2cc(O)cc(O)c12` [compound 9, Apigenin], the IC50 in the assay with Hela cells was above 10 µM; with HCC827 cells it was above 10 µM; in the assay on B16-F10 cells (B16-F10, 48 h, CCK-8), above 10 µM; with A549 cells, above 10 µM; with HT-29 cells, above 10 µM; in the assay with OVCAR-3 cells it was above 10 µM. In addition, in the assay on A431 cells (A431, 48 h, CCK-8), the IC50 is above 10 µM. Further, on human ABHD12 (setting [2]), the activity at 100 µM came out at 62.8%. The “potency towards ABHD12” value at human ABHD12 is “neglectable potency”. Also, the inhibition at 100 µM at human ABHD12 was 37%. The “antiproliferative screening across the cell line panel” value in assay [1] is given as “neglectable antiproliferative behavior to other cell lines”. For the same compound, the “inhibition of cell viability of B16-F10” value in the assay with B16-F10 cells (20 µM, 48 h) was 54%.

`COc1ccc2cc3[n+](cc2c1OC)CCc1cc2c(cc1-3)OCO2` [compound 17, Berberine chloride]: the IC50 in the assay with Hela cells is above 10 µM; with HCC827 cells it was above 10 µM; with B16-F10 cells (B16-F10, 48 h, CCK-8) it was above 10 µM; in the assay on A549 cells, above 10 µM; in the assay on HT-29 cells, above 10 µM; in the assay on OVCAR-3 cells, above 10 µM. Besides, the IC50 with A431 cells (A431, 48 h, CCK-8) is above 10 µM. In addition, the activity at 100 µM at human ABHD12 (setting [2]) amounted to 86.1%.

As for `C[C@H]1COC2=C1C(=O)C(=O)c1c2ccc2c1CCCC2(C)C` [compound 23, Cryptotanshinone], the IC50 is 7.94 µM in the assay with Hela cells; 6.31 µM in the assay with HCC827 cells; at most 10 µM in assay [1] (CCK-8, read-out: pIC50 towards all eight cancer cell lines (converted)); 7.94 µM with B16-F10 cells (B16-F10, 48 h, CCK-8); 3.16 µM with A549 cells; 10 µM in the assay with HT-29 cells. The IC50 is 5.01 µM in the assay on OVCAR-3 cells and 7.94 µM in the assay with A431 cells (A431, 48 h, CCK-8). The activity at 100 µM at human ABHD12 (setting [2]) stood at 81.6%. Moreover, at human ABHD12, the “potency towards ABHD12” value is “neglectable potency”. The inhibition at 100 µM at human ABHD12 was 18%. Moreover, the “antiproliferative screening across the cell line panel” value in assay [1] is recorded as “appreciable inhibition against almost all the tested cell lines”.

`COc1ccc(C(C)=O)c(O)c1` [compound 64, Paeonol]: the IC50 with Hela cells was above 10 µM; in the assay with HCC827 cells, above 10 µM; in the assay on B16-F10 cells (B16-F10, 48 h, CCK-8), above 10 µM; in the assay with A549 cells, above 10 µM; with HT-29 cells, above 10 µM; in the assay on OVCAR-3 cells it was above 10 µM. The IC50 with A431 cells (A431, 48 h, CCK-8) is 6.31 µM. In addition, at human ABHD12 (setting [2]), the activity at 100 µM is 92.2%. For the same compound, the “antiproliferative screening across the cell line panel” value in [1] is recorded as “selectively inhibited cell proliferation of A431 over other cell lines”. In the assay with A431 cells (20 µM, 48 h), the “inhibition of cell viability of A431” value amounted to 78%.

The record behind these values is PMC9465256, “Discovering monoacylglycerol lipase inhibitors by a combination of fluorogenic substrate assay and activity-based protein profiling” (Frontiers in Pharmacology, 2022).
